The values below are quoted from earlier work in patent publication US20110136741A1 (priority 2008, published 2011).

For one series, the target named is subtype sst2 receptors (Homo sapiens, UniProt P30874).
The target in another series is hsst2 (Homo sapiens, UniProt P30874).
hsst2, sequence (P30874 whole entry): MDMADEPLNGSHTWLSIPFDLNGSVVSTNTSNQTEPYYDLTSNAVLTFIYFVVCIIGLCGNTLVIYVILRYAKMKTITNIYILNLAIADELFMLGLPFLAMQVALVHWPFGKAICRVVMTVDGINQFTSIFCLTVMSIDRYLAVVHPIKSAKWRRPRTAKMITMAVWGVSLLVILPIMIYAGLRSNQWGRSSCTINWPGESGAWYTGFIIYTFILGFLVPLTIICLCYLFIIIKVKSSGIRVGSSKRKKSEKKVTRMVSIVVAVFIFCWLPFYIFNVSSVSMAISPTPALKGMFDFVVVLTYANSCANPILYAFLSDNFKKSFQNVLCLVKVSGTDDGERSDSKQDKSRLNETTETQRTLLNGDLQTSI

subtype sst2 receptors, sequence (P30874 whole entry): as above

For the molecule `C[C@@H](O)[C@@H]1NC(=O)[C@H](CCCCN)NC(=O)[C@@H](Cc2c[nH]c3ccccc23)NC(=O)[C@H](Cc2ccccc2)NC(=O)[C@@H](NC(=O)[C@H](N)Cc2ccccc2)CSSC[C@@H](C(=O)N[C@H](CO)[C@@H](C)O)NC1=O` [octreotide], the “affinity for subtype sst2 receptors” value at subtype sst2 receptors is “very high affinity”. Besides, at hsst2, the “activity towards hsst2 receptor” value is listed as “very active”. Regarding `CC(O)[C@@H]1NC(=O)[C@H](CCCCN)NC(=O)[C@H](Cc2c[nH]c3ccccc23)NC(=O)[C@H](Cc2ccccc2)NC(=O)[C@H](Cc2ccccc2)NC(=O)[C@H](CC(N)=O)NC(=O)[C@H](CCCCN)NC(=O)[C@@H](NC(=O)CNC(=O)[C@H](C)N)CSSC[C@@H](C(=O)O)NC(=O)[C@H](CO)NC(=O)[C@H]([C@@H](C)O)NC(=O)[C@H](Cc2ccccc2)NC1=O` (stereo partly drawn) [somatostatin, Somatostatin-14], the half-life in blood was under 3 min.
